Experimental data as given in ChEMBL document CHEMBL3045795, “Peroxidizing Phytotoxic Activity of 1, 3, 4-Thiadiazolidine-2-thiones and 1, 2, 4-Triazolidine-3, 5-dithiones” (J Pestic Sci, 1995).

Experiments:
[1] = tested on: Scenedesmus acutus; test: Peroxidizing phytotoxicity against Scenedesmus acutus assessed as ethane production after 20 hr by gas chromatography; type: functional, organism-based; details: read-out: pI50 (converted)
[2] = target: T1, Protoporphyrinogen IX oxidase (UniProt C1N1S5); test: Inhibition of Protoporphyrinogen IX oxidase in Scenedesmus acutus assessed as protoporphyrin IX level per ml of packed cell volume by HPLC; further: test concentration or dose not given here
T1 sequence (whole entry): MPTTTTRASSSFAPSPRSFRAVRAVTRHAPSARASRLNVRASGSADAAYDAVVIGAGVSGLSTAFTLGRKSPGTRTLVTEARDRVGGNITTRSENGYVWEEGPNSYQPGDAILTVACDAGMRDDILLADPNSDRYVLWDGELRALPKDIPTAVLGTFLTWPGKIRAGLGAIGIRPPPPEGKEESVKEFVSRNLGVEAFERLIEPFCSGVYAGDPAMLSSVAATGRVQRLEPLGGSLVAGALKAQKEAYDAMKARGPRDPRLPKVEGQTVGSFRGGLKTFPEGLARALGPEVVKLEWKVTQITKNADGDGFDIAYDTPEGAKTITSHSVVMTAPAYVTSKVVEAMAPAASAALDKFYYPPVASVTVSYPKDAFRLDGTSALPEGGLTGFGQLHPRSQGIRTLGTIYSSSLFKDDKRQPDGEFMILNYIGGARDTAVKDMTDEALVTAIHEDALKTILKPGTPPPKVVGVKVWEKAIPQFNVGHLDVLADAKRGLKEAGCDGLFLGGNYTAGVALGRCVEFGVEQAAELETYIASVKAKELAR

[3] = tested on: Scenedesmus acutus; test: Phytotoxicity against Scenedesmus acutus assessed as reduction in chlorophyll content by spectrophotometry; type: functional, organism-based; details: read-out: pI50 (converted)
[4] = tested on: Scenedesmus acutus; test: Growth inhibition of Scenedesmus acutus assessed as reduction in packed cell volume; type: functional, organism-based; details: read-out: pI50 (converted)
[5] = target: T2, Protoporphyrinogen IX oxidase (Zea mays, UniProt Q9FYV8); test: Inhibition of Protoporphyrinogen IX oxidase in Zea mays cv. Anjou (maize) seedlings etioplasts homogenates assessed as reduction in protoporphyrin IX production by fluorescence spectroscopy; details: read-out: pI50 (converted)
T2 sequence (Q9FYV8 whole entry): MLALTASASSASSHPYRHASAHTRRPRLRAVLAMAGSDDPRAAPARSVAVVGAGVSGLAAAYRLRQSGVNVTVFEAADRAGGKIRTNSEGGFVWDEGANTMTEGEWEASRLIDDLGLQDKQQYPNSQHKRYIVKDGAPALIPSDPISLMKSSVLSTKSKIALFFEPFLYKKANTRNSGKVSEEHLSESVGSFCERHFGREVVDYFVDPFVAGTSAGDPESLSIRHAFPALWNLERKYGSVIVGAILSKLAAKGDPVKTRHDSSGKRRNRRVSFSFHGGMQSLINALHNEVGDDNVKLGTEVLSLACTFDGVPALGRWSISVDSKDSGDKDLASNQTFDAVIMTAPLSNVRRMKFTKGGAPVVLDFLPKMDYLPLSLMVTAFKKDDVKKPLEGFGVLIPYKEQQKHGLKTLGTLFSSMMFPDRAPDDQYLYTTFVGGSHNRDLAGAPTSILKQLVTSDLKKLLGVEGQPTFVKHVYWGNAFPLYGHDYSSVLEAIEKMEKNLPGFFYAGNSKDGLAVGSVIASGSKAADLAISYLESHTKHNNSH

| SMILES | Activity [2] [nmol] | IC50 [5] [nM] | IC50 [1] [nM] | IC50 [3] [nM] | IC50 [4] [nM] |
| --- | --- | --- | --- | --- | --- |
| S=c1s/c(=N\c2ccc(Cl)cc2)n2n1CCCC2 | 20.3 | 1100 | 550 | 234 | 339 |
| Cc1cc(Cl)ccc1/N=c1\sc(=S)n2n1CCCC2 | 20.3 | 7590 | 513 | 275 | 457 |
| S=c1s/c(=N\c2ccc(Br)cc2)n2n1CCCC2 | 25.3 | 741 | 550 | 148 | 162 |
| S=c1s/c(=N\c2ccc(OCc3ccc(Cl)cc3)cc2)n2n1CCCC2 | 30.7 | 813 | 120 | 20 | 21.9 |
| C#CCOc1cc(/N=c2\sc(=S)n3n2CCCC3)c(F)cc1Cl | 63.5 | 204 | 79.4 | 5.5 | 7.24 |
| CCOc1cc(Oc2ccc(C(F)(F)F)cc2Cl)ccc1[N+](=O)[O-] [OXYFLUORFEN] | 65.6 | 7.94 | 41.7 | 21.4 | 30.9 |
| COC(=O)CSc1cc(/N=c2\sc(=S)n3n2CCCC3)c(F)cc1Cl | 34.1 | 120 | 389 | 191 | 245 |
| Fc1cc(Cl)ccc1/N=c1\sc(=S)n2n1CCCC2 | 31.5 | 1100 | 91.2 | 67.6 | 120 |
| CC(C)Oc1cc(/N=c2\sc(=S)n3n2CCCC3)c(F)cc1Cl | 30.7 | 617 | 166 | 11.2 | 13.8 |
| COC(=O)CSc1cc(-n2c(=S)n3n(c2=S)CCCC3)c(F)cc1Cl | 56 | – | 158 | 141 | 186 |

Further lines, with some results ahead:

| Activity [2] [nmol] | IC50 [5] [nM] | SMILES | IC50 [1] [nM] | IC50 [3] [nM] | IC50 [4] [nM] |
| --- | --- | --- | --- | --- | --- |
| 63.3 | 151 | Cc1cc(Cl)ccc1-n1c(=S)n2n(c1=S)CCCC2 | 85.1 | 85.1 | 105 |
| 87.2 | 8.91 | C#CCOc1cc(-n2c(=S)n3n(c2=S)CCCC3)c(F)cc1Cl | 7.24 | 1.7 | 2.04 |
| 70.3 | 7.24 | Fc1cc(Cl)ccc1-n1c(=S)n2n(c1=S)CCCC2 | 27.5 | 18.2 | 23.4 |
| 10.8 | > 31600 | S=c1s/c(=N\c2ccccc2)n2n1CCCC2 | 4370 | 13800 | 14100 |
| 80.3 | 12 | S=c1n(-c2ccc(OCc3ccc(Cl)cc3)cc2)c(=S)n2n1CCCC2 | 22.9 | 15.5 | 17.4 |
| 50.3 | 6.76 | S=c1n(-c2ccc(Cl)cc2)c(=S)n2n1CCCC2 | 50.1 | 43.7 | 61.7 |
| 67.9 | 7.24 | S=c1n(-c2ccc(Br)cc2)c(=S)n2n1CCCC2 | 46.8 | 37.2 | 64.6 |
| 60.2 | 1.2 | CC(C)Oc1cc(-n2c(=S)n3n(c2=S)CCCC3)c(F)cc1Cl | 67.6 | 5.25 | 7.59 |
| 13.2 | 3240 | S=c1n(-c2ccccc2)c(=S)n2n1CCCC2 | 2040 | 6310 | 7940 |
